Results: ChEMBL document CHEMBL1201862, “PubChem BioAssay data set” (2004)
Activity calls are given as the source filed them.

Legend:
BJ [1] = assay: cytotoxicity toward BJ-TERT fibroblasts, dose response, cell-based, RAS-independent, luminescence (AID 1933); format: functional, Homo sapiens; details: Homo sapiens, BJ
BJ [2] = assay: cells; format: functional, cell-based, Homo sapiens; details: Homo sapiens, BJ
BJ [3] = assay: cytotoxicity toward BJ-TERT-LT-ST fibroblasts, dose response, cell-based, RAS-independent, luminescence (AID 1935); format: functional, Homo sapiens; details: Homo sapiens, BJ;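 also: BJ fibroblasts immortalized with TERT plus LT and ST oncogenes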
[4] = cytotoxicity toward DRD oncogenic fibroblasts, dose response, cell-based, non-viral oncogenic, luminescence (AID 1934); format: functional; details: Homo sapiens
[5] = biological target: T1, Corticotropin-releasing factor receptor 2/Corticotropin-releasing factor-binding protein (Homo sapiens, UniProt P24387+Q13324); assay: Dose Response confirmation of uHTS hits for small molecule antagonists of the CRF-binding protein and CRF-R2 receptor complex.; format: functional; details: read-out: IC50_Mean
T1 sequence (Q13324 whole entry): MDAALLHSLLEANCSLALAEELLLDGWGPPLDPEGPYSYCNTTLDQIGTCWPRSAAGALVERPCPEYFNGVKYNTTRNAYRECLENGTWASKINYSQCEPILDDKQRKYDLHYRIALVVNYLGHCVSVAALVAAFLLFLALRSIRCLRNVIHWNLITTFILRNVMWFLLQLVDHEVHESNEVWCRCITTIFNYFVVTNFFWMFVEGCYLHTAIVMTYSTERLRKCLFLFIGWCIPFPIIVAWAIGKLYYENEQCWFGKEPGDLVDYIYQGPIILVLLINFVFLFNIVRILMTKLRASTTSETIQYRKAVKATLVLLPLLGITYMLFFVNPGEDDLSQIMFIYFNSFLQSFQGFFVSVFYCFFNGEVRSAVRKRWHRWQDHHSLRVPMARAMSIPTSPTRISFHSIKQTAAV
T1 sequence (P24387 whole entry): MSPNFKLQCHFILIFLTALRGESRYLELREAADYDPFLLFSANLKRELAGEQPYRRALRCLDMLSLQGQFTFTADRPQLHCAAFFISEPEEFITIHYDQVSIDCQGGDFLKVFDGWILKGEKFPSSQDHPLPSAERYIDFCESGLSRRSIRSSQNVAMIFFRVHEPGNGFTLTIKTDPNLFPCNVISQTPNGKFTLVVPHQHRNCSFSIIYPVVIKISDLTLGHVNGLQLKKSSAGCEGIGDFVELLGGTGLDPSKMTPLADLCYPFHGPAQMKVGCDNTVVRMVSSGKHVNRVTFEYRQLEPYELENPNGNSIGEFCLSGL

[6] = biological target: T1, Corticotropin-releasing factor receptor 2/Corticotropin-releasing factor-binding protein; assay: activators of CRF receptor 2 with binding protein – uHTS hits, confirmation (AID 602473); format: functional; details: read-out: EC50_Mean
[7] = CRF-BP/CRF-R2 complex antagonists, dose response, cell-based, uHTS hits, 384-well (AID 651639); format: functional, Homo sapiens; details: read-out: IC50_Mean
[8] = human group III sPLA2 inhibitors, dose response, biochemical, QFRET, IC50 (AID 743457);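 also: green fluorescence rise as the enzyme cleaves BODIPY PC-A2 in liposomes; potency for inhibition of the enzyme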
Paired box protein Pax-8 = Paired box protein Pax-8 (Homo sapiens, UniProt Q06710); assay: inhibitors of PAX8-driven TPO luciferase reporter, dose response, RMG-I cells, cherry-pick (AID 687027); format: functional, cell-based;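 also: luciferase reporter driven by Pax8 target thyroperoxidase promoter measured by SteadyGlo luminescence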
Paired box protein Pax-8, sequence (Q06710 whole entry): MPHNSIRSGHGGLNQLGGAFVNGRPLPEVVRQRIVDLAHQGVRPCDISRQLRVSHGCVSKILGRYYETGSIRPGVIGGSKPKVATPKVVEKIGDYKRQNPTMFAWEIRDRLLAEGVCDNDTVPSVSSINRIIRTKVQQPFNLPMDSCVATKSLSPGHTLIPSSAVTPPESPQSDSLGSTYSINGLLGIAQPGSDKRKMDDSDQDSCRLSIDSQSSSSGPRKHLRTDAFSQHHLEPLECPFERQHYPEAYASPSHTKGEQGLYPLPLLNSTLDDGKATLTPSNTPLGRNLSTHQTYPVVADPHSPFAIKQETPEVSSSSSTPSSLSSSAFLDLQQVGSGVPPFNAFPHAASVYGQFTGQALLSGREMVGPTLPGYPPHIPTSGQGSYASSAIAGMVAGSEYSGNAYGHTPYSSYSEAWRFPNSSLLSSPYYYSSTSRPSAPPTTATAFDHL

[9] = NIH:OVCAR-3 ovarian cancer cell cytotoxicity, dose response, PAX8 inhibitor project, plate reader, dry powder samples (AID 743044); format: functional, cell-based
[10] = IGROV1 ovarian cancer cell cytotoxicity, dose response, PAX8 inhibitor project, plate reader, dry powder samples (AID 743043); format: functional, cell-based; details: IGROV-1
[11] = cytotoxicity in OVCAR8 ovarian cancer cells, dose response, PAX8 project, cell-based, plate reader, dry powder samples (AID 743197); format: functional; details: OVCAR-8
[12] = biological target: T2, Polyadenylate-binding protein 1 (Homo sapiens, UniProt P11940); assay: PABP1 MLLE–PAM2 interaction inhibitors, dose response, miRNA deadenylation inhibitor project, biochemical, fluorescence polarization, Cy5-PAM2 peptide, secondary (AID 602260); format: functional; details: read-out: IC50_Mean
T2 sequence (P11940 whole entry): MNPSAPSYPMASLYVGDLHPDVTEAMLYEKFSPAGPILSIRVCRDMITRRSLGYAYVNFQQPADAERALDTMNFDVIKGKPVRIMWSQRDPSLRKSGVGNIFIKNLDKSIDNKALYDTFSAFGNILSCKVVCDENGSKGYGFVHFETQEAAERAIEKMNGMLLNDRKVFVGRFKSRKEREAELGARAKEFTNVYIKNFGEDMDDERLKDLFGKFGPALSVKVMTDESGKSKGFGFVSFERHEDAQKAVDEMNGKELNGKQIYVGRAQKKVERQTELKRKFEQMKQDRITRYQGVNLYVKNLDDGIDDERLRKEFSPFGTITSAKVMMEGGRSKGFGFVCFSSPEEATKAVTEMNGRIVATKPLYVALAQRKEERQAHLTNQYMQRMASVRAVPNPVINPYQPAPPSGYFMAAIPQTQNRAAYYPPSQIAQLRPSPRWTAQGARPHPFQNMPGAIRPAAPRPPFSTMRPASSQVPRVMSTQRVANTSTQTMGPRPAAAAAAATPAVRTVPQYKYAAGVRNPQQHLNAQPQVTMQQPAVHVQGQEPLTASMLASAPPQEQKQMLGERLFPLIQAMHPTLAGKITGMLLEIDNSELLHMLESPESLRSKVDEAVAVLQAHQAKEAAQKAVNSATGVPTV

[13] = biological target: T2, Polyadenylate-binding protein 1; assay: PABP1 MLLE–PAM2 binding inhibitor potency, dose response, biochemical, fluorescence polarization, FITC-PAM2 peptide (AID 602259); format: functional; details: read-out: IC50_Mean
Caspase-3 = biological target: T3, Caspase-3 (Homo sapiens, UniProt P42574); format: functional;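 also: Dose-response selectivity test against caspase-3 for candidate inhibitors of sentrin-specific proteases (SENPs)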
T3 sequence (P42574 whole entry): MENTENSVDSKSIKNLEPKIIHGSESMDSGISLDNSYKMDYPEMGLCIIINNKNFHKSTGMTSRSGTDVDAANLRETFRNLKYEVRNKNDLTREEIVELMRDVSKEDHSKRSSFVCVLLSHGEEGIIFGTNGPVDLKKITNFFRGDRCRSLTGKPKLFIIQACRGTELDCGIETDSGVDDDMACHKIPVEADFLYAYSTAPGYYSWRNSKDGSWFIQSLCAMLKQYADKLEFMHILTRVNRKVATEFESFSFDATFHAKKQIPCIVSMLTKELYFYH

[14] = biological target: T4, Sentrin-specific protease 7 (Homo sapiens, UniProt Q9BQF6); format: functional;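 also: Luminescence-based dose-response confirmation of ultra-high-throughput screening hits, measuring inhibition of SENP7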
T4 sequence (Q9BQF6 whole entry): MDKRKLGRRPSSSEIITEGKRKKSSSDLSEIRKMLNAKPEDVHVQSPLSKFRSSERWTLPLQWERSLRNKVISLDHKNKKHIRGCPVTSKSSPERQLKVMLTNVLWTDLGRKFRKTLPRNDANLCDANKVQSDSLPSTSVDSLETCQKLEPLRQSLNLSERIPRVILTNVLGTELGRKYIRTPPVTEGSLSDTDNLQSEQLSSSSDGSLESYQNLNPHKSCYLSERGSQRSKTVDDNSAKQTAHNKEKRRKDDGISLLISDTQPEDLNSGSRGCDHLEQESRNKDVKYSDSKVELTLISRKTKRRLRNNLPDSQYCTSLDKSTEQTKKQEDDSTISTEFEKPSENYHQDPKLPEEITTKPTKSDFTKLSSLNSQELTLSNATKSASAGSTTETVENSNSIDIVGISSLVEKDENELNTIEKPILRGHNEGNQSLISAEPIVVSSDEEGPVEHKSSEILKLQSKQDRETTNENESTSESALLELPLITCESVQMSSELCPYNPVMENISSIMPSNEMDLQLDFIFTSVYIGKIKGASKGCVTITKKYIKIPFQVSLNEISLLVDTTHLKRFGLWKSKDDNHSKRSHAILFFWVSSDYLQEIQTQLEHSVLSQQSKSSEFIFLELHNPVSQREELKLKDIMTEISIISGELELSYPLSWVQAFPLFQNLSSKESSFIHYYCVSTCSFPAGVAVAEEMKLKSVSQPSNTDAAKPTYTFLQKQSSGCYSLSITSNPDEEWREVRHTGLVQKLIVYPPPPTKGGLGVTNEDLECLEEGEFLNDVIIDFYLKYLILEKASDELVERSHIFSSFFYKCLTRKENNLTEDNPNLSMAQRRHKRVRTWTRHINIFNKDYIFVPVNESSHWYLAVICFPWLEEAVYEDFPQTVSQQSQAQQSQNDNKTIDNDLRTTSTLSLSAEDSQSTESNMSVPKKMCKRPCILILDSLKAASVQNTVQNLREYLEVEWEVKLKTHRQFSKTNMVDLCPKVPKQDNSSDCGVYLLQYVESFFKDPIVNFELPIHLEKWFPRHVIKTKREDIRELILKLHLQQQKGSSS

[15] = biological target: T5, Sentrin-specific protease 6 (Homo sapiens, UniProt Q9GZR1); format: functional;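 also: Luminescence-based dose-response confirmatory assay of SENP6 inhibition, following up an ultra-high-throughput screen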
T5 sequence (Q9GZR1 whole entry): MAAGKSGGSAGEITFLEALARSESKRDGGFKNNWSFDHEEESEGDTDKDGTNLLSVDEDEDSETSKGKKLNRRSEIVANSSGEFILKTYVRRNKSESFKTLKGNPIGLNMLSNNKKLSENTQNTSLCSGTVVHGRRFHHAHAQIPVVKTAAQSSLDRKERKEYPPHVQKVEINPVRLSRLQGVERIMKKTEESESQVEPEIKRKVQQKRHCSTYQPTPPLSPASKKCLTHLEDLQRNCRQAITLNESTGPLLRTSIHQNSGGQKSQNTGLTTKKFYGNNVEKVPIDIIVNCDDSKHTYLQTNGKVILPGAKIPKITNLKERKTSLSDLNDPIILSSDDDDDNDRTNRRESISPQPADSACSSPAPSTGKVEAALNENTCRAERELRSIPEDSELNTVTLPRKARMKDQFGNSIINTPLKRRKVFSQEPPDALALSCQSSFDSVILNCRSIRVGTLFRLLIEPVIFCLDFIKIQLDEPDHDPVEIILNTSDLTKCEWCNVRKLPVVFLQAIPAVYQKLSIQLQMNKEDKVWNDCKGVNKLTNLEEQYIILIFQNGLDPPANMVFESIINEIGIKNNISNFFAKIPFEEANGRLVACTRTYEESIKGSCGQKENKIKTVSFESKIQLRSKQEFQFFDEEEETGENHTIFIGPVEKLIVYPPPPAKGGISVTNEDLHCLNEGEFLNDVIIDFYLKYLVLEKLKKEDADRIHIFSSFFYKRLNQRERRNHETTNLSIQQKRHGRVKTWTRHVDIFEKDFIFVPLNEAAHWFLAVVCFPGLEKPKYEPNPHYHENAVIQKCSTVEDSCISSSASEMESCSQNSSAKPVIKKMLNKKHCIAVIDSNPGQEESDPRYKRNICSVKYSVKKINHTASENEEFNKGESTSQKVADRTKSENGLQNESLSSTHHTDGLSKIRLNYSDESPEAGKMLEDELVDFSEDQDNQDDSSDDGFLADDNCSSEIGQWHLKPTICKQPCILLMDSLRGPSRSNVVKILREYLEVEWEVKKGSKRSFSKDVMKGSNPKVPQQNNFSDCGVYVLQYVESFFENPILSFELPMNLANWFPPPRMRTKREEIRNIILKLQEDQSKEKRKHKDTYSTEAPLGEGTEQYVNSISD

[16] = biological target: T6, Sentrin-specific protease 8 (Homo sapiens, UniProt Q96LD8); format: functional;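 also: luminescence read-out of SENP8 inhibition, dose-response confirmation following an ultra-high-throughput screen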
T6 sequence (Q96LD8 whole entry): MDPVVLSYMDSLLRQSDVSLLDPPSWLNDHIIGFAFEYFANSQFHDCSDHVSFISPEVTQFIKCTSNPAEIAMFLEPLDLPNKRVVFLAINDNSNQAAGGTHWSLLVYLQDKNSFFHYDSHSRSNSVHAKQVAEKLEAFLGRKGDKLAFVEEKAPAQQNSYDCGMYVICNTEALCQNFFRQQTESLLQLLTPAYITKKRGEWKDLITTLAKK

[17] = biological target: T7, Low molecular weight phosphotyrosine protein phosphatase (Homo sapiens, UniProt P24666); format: functional; details: read-out: IC50_Mean;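 also: Dose-response confirmation assay measuring inhibition of LMPTP enzyme activity by fluorescence intensity read-out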
T7 sequence (P24666 whole entry): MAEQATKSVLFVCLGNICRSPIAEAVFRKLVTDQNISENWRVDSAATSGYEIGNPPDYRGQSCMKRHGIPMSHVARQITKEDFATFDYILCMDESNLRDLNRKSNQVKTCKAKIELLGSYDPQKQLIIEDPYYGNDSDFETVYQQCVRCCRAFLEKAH

Protein Wnt-3a = Protein Wnt-3a (Mus musculus, UniProt P27467); assay: Wnt3a-driven reporter signaling inhibition, dose response, selectivity assay for Gli-SUFU antagonist project, Wnt-LIGHT cells, luminescence (AID 651570); format: functional; details: read-out: IC50_Mean;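 also: Wnt-LIGHT reporter cells stimulated with conditioned medium from Wnt3a-producing cells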
Protein Wnt-3a, sequence (P27467 whole entry): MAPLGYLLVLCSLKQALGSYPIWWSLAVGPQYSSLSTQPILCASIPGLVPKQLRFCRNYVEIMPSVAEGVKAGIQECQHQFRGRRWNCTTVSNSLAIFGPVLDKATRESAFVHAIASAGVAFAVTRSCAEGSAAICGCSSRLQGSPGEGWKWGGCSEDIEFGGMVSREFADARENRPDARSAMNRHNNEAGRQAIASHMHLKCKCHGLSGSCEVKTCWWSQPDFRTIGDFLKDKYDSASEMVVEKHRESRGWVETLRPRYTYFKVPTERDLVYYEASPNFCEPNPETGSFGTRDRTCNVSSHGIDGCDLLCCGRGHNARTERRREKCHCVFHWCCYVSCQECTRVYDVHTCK

[18] = inhibitors of intracellular T. cruzi replication, confirmation, NIH3T3 host cells, beta-gal luminescence (AID 2044); format: functional, cell-based;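 also: intracellular parasites grown in NIH/3T3 mouse fibroblasts as host cells; luminescent beta-galactosidase reporter signal from transgenic T. cruzi replicating inside host cells; inhibitors lower the luminescence signal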
[19] = cytotoxicity toward NIH3T3 fibroblasts, dose response, counter-screen, cell-based, ATP luminescence, mouse fibroblasts (AID 2010); format: functional;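 also: cells exposed to compound for about 90 hours before reading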

## Oc1cc(C(F)(F)F)nc2ccc(OC(F)(F)F)cc12
BJ [1]
  EC50: 38.8 µM (active)
BJ [2]
  EC50: 41.4 µM (active)
BJ [3]
  EC50: > 150 µM (not active)
[4]
  EC50: 38.4 µM (active)
[5]
  IC50: 4.24 µM (active)
[6]
  EC50: 5.39 µM (active)
[7]
  IC50: > 20 µM (inactive)

## O=C1C(=O)N(Cc2ccc(-c3ccc(Cl)nc3)cc2)c2ccc(OC(F)(F)F)cc21
[8]
  IC50: > 122 µM (inactive)

## C[C@@H]1CN([C@@H](C)CO)C(=O)Cc2cc(NC(=O)Nc3ccc(C(F)(F)F)cc3)ccc2O[C@H]1CN(C)Cc1ccc2c(c1)OCO2
Paired box protein Pax-8
  AC50: 7.85 µM (active)
[9]
  AC50: 24 µM (active)
[10]
  AC50: 63.7 µM (active)
[11]
  AC50: 41.5 µM (active)

## C/C(=N\NC(=S)NCCc1ccccc1)c1ccc(O)cc1O
[12]
  IC50: > 66 µM (inactive)
[13]
  IC50: > 66 µM (inactive)
[8]
  IC50: > 122 µM (inactive)

## CCOC(=O)/C=C(\C)N1N=C(c2ccccc2)CC1c1ccccc1 (centres undefined)
Caspase-3
  IC50: 19.8 µM (active)
[14]
  IC50: 6.48 µM (active)
[15]
  IC50: 19.7 µM (active)
[16]
  IC50: 36.1 µM (active)

## COc1ccc(-n2c(SCC(=O)NN=C(S)Nc3ccccc3)nc3ccccc3c2=O)cc1
[8]
  IC50: > 40.6 µM (inactive)

## N=c1c(C(=O)NCc2ccco2)cc2c(=O)n3ccccc3nc2n1Cc1ccc(Cl)cc1
[17]
  IC50: 41.8 µM (inactive)

## c1ccc(C[n+]2c(-c3ccccc3)cn3c2SCCC3)cc1
Protein Wnt-3a
  IC50: 7.13 µM (active)

## CCOc1ccccc1/N=C1\SC(CC(=O)Nc2ccc(OC)cc2OC)C(=O)N1CCC1=CCCCC1 (centres undefined)
[18]
  EC50: 1.98 µM (active)
[19]
  EC50: > 60 µM (not active)
[5]
  IC50: < 0.368 µM (active)
[6]
  EC50: > 53 µM (inactive)
[7]
  IC50: > 20 µM (inactive)

## COc1ccc(NC(=O)NC(C)c2ccc3c(c2)OCO3)c(OC)c1 (centres undefined)
[5]
  IC50: < 0.368 µM (active)
[6]
  EC50: > 53 µM (inactive)
[7]
  IC50: > 20 µM (inactive)

## O=C1/C(=C/N(C(=O)c2ccco2)c2ccc(Br)cc2)Sc2ccccc21
Caspase-3
  IC50: 16.2 µM (active)
[14]
  IC50: 13.9 µM (active)
[15]
  IC50: 19 µM (active)
[16]
  IC50: 24.7 µM (active)
